Entries after “also recorded” stand apart in the source; their conditions may differ.
Columns and labels:
[1] = test system: mice with constipation due to overexpression of human αS; conditions: mouse models of PD, oral administration; cited from earlier work
[2] = test system: IPANs (intrinsic primary afferent neuron); conditions: perfusion through lumen of isolated bowel segment; cited from earlier work
[3] = prior studies; cited from earlier work
[4] = Oral bioavailability / systemic absorption estimate versus prior IV pharmacokinetic data; type: in vivo, human; conditions: this study, PD patients
Method: PK data were collected on the 10 patients enrolled in Stage 1 and 10 patients enrolled in Stage 2 to determine the extent of systemic absorption. In Stage 1, PK data were obtained at each visit, pre-medication, at 1, 2, 4, 8 and 24 hours (Table 10). In Stage 2, PK was measured on days 1 and 6 of the randomization period pre-medication, at 1, 2, 4 and 8 hours (Table 11).

[5] = Prior clinical trials of intravenous squalamine; type: in vivo, human; conditions: prior studies
Method: Systemic absorption of the aminosterol following oral administration was negligible both in this study and in prior studies involving mice, rats and dogs. […] The topical action would also explain why adverse events were largely confined to the gastrointestinal tract.
In the current clinical trial, squalamine (ENT-01) was administered orally to subjects with PD who have long standing constipation. Although this trial was the first in man oral dosing study of ENT-01, humans have long been exposed to low doses of squalamine (milligram to microgram) in the various commercial dogfish shark liver extracts available as nutraceuticals (e.g., Squalamax).

[6] = mice, systemic administration; into the duodenum through the biliary tract; cited from earlier work

CC(C)[C@@H](CC[C@@H](C)[C@H]1CC[C@H]2[C@@H]3[C@H](O)C[C@H]4C[C@@H](NCCCNCCCCN)CC[C@]4(C)[C@H]3CC[C@]12C)OS(=O)(=O)O [squalamine]
gastrointestinal motility [1]: stimulates gastro-intestinal motility; also recorded: reverse gastrointestinal dysmotility | effect on IPANs of the ENS [2]: excitation of IPANs | effect of intravenous administration on gastrointestinal motility [3]: not associated with increased gastrointestinal motility | systemic absorption following oral administration [4]: negligible; also recorded: not significantly absorbed | systemic blood levels after intravenous versus oral administration [5]: one thousand-fold greater | clearance and excretion [6]: cleared by the liver and excreted as the intact molecule

From patent publication US20200038416A1, “METHODS OF TREATING CARDIAC CONDUCTION DEFECTS USING AMINOSTEROL COMPOSITIONS” (Enterin, Inc., priority 2018, published 2020)
